Source: patent US4696920A, “Certain 2-substituted 1,3-propylidenediphosphonate derivatives, pharmaceutical compositions containing them and their use as antihypertensive agents” (priority 1984, dated 1987)
Where two headings read alike, the source gives them in different places.

What was measured:
[1] = test system: calcium channel binding site for [^3 H]-Nitrendipine (rat brain membranes); test: [^3 H]-Nitrendipine binding to rat brain membranes; set-up: species or system rat (male Wistar); conditions: for Specifically bound [^3 H]-Nitrendipine % of control value: compound concentration 1.0 μM; for Specifically bound [^3 H]-Nitrendipine % of control value / Bound ^3 H at 1.0 μM / Bound ^3 H at 0.1 μM / modulation of [^3 H]-Nitrendipine binding (in words): Table 1a; for Bound ^3 H at 1.0 μM / Bound ^3 H at 0.1 μM: ratio of [^3 H]-Nitrendipine bound at 1.0 and 0.1 μM compound
Description: Diltiazem hydrochloride was a generous gift from Goedecke A. G.
Suitable dilutions were made in 50 mM Tris-HCl buffer (pH 7.4) containing 150 mM NaCl and 1 mM CaCl2. The ethanol concentration in the final assay never exceeded 0.1%.
The purity of the radioligand and of the various agents tested was monitored by thin layer chromatography on silica gel plates.
The following procedure was adapted from Bellemann et al (Proc. Nat. Acad. Sci. 80, 2356, 1983), and Gould et al (Proc. Nat. Acad. Sci. 79, 3656, 1982).
Adult male Wistar rats weighing 250-300 g were anesthetized with carbon dioxide prior to decapitation. The brain was removed then immersed in ice-cold 0.32M sucrose and washed 2-3 times with fresh solution. Cerebral cortex was minced and homogenized (Potter-Elvehjem homogenizer) in 10 volumes of ice-cold sucrose solution. The homogenate was centrifuged (4° C.) at 1000×g for 15 minutes. The resulting supernatant was then centrifuged at 90000×g (30 minutes) and the pellet was washed twice with 20 ml ice-cold 50 mM Tris-HCl pH 7.4.
The final pellet was resuspended in 50 mM Tris-HCl pH 7.4/150 mM NaCl/1 mM CaCl2 to give a protein concentration of 4 mg/ml.
The membrane suspension was kept on ice until used. Binding assays were performed in subdued light to prevent dihydropyridine breakdown. Membrane protein (400 μg/tube) was incubated in 50 mM Tris-HCl buffer (pH 7.4)/150 mM NaCl/1 mM CaCl2 with the indicated concentrations of radioligand and test compounds or known calcium antagonists, in a total volume of 2 ml. After the indicated time intervals, the reaction was terminated by rapid filtration through Whatman GF/B glass fiber filters (2.4 cm diameter) on a Millipore filter holder. The assay tube was rinsed with 2 ml ice-cold 50 mM Tris-HCl pH (7.4) and the precipitate was further washed with 2×5 ml of the same buffer.
Filters were dried under a heat lamp and were extracted with 10 ml of liquid scintillation cocktail (Toluene/Triton X-100, 2/1 containing 4 g Omnifluor/1) prior to tritium determination at 48% counting efficiency.
Assays were performed in duplicate or triplicate.
Data were expressed as percent specific [^3 H]-Nitrendipine binding relative to the established control value.
Compound activity in the [^3 H]-Nitrendipine binding assay was evaluated by using the following criteria:
1. [^3 H]-Nitrendipine binding at 1.0 μM compound final concentration was either below 95% or above 105% of the control value determined in absence of compound.
2. […] This ratio is indicative of a dose response relationship within the compound concentration range tested, when the value differs appreciably from 1.0.

[2] = test system: rat trachea contraction induced by KCl depolarization; test: KCl-induced rat trachea contraction; set-up: species or system rat (male SHR, Okamoto-Aoki); conditions: for activity at 1 µM: Rattus norvegicus, 40 min, read-out: Contraction (% max.)
Description: Spontaneously hypertensive male rats (SHR) Okamoto-Aoki Strain, weighing 300-400 g were used in this study. They were killed by bleeding after Pentobarbital anesthesia (Nembutal, Abbott Co, 40 mg/kg). Their entire trachea was quickly removed and dissected free of fat and connective tissue in Krebs-Ringer solution. A strip (4 mm×40 mm), obtained by spirally cutting the trachea, was immediately suspended in a 50 ml Krebs-Ringer solution and continuously bubbled with a O2 /CO2 (95/5) mixture. Bath temperature was maintained at 37±1° C. The composition (mM) of the Krebs-Ringer solution modified by Nghiem, was as follows: NaCl, (118.0); KCl, (4.7); CaCl2, (2.5); MgCl2, (1.18); NaHCO3, (12.5); KH2 P04, (1.18); glucose, (5.5) in bidistilled water (pH 7.4). Each strip was equilibrated under initial tension (1.5-2 g) for 1-2 hours and the bath solution changed every 30 min. A contractile or relaxant response was isometrically measured with a force-displacement transducer (Ugo-Basile) and recorded on a polygraph (Beckman).
After equilibration, KCl was added to the bath at 65 mM final concentration. This concentration produced maximum trachea contraction. Under these conditions, a plateau phase showing a tonic sustained contraction was reached within 30 minutes. Drugs were added 30 minutes after the plateau phase has been reached (final concentration=1.0 μM). […] Recordings of the residual trachea contraction were made 40 minutes after drug addition to the bathing fluid. The initial KCl induced contraction was taken as the maximum KCl response (100%). Results were expressed as % of maximal contraction. Nifedipine, Prenylamine, Flunarizine and Diltiazem were used as reference standards to validate this assay.
All 1,3-diphosphonates and drugs were dissolved in saline (0.9% NaCl) except when water insoluble, then the compounds were dissolved in 2% ethanol. The final concentration of ethanol used has been shown not to interfere with the assay.
Results are expressed as mean values±SEM, the Student's t-test was used for statistical analysis.

[3] = final concentration 1.0 μM, 65 mM KCl, 40 minutes after drug addition, mean ± SEM

O=P(O)(O)CC(Cc1ccccc1)CP(=O)(O)O [Compound 2, 2-Benzyl-1,3-propylidenediphosphonic acid] was tested, and the “Specifically bound [^3 H]-Nitrendipine % of control value” [1] was 98 % of control value and the “Bound ^3 H at 1.0 μM / Bound ^3 H at 0.1 μM” value [1] was 1.002.

O=P(O)(O)CC(CCc1ccccc1)CP(=O)(O)O [Compound 3] was tested, and the “Specifically bound [^3 H]-Nitrendipine % of control value” [1] was 94 % of control value and the “Bound ^3 H at 1.0 μM / Bound ^3 H at 0.1 μM” value [1] was 0.955.

O=P(O)(O)CC(CCCc1ccccc1)CP(=O)(O)O [Compound 4] was tested, and the “Specifically bound [^3 H]-Nitrendipine % of control value” [1] was 99 % of control value and the “Bound ^3 H at 1.0 μM / Bound ^3 H at 0.1 μM” value [1] was 0.957.

With O=P(O)(O)CC(Cc1ccc(Cl)cc1)CP(=O)(O)O [Compound 5] the “Specifically bound [^3 H]-Nitrendipine % of control value” [1] was 99 % of control value and the “Bound ^3 H at 1.0 μM / Bound ^3 H at 0.1 μM” value [1] was 1.003.

With COP(=O)(CC(Cc1ccccc1)CP(=O)(OC)OC)OC [Compound 10, Tetramethyl 2-benzyl-1,3-propylidenediphosphonate] the “Specifically bound [^3 H]-Nitrendipine % of control value” [1] was 92 % of control value, the “Bound ^3 H at 1.0 μM / Bound ^3 H at 0.1 μM” value [1] was 0.983 and the activity at 1 µM [2] was 91%.

With COP(=O)(CC(CCc1ccccc1)CP(=O)(OC)OC)OC [Compound 11] the “Specifically bound [^3 H]-Nitrendipine % of control value” [1] was 96 % of control value and the “Bound ^3 H at 1.0 μM / Bound ^3 H at 0.1 μM” value [1] was 1.024.

CCOP(=O)(CC(Cc1cccc2ccccc12)CP(=O)(OCC)OCC)OCC [Compound 37] was tested, and the “Specifically bound [^3 H]-Nitrendipine % of control value” [1] was 104 % of control value, the “Bound ^3 H at 1.0 μM / Bound ^3 H at 0.1 μM” value [1] was 1.011 and the activity at 1 µM [2] was 53.8 ± 0.4%. For the same compound, the “activity on KCl-induced trachea contraction (in words)” value (shortened to “activity … (in words)”) ([2]; final concentration 1.0 μM) was “potent pharmacological activity”.

CCOP(=O)(CC(Cc1ccc(-c2ccccc2)cc1)CP(=O)(OCC)OCC)OCC [Compound 38] was tested, and the “modulation of [^3 H]-Nitrendipine binding (in words)” value (“modulation” for short) [1] was “strong inhibitors”, the “Specifically bound [^3 H]-Nitrendipine % of control value” [1] was 60 % of control value and the “Bound ^3 H at 1.0 μM / Bound ^3 H at 0.1 μM” value [1] was 0.721. The activity at 1 µM [2] was 84 ± 2.4% and the “activity … (in words)” value ([2]; final concentration 1.0 μM) was “potent pharmacological activity”.

In the case of CCOP(=O)(CC(CP(=O)(OCC)OCC)C(c1ccccc1)c1ccccc1)OCC [Compound 39], the “Specifically bound [^3 H]-Nitrendipine % of control value” [1] is reported as 110 % of control value, the “Bound ^3 H at 1.0 μM / Bound ^3 H at 0.1 μM” value [1] is reported as 1.220 and the activity at 1 µM [2] is reported as 96 ± 4.9%.

With CCOP(=O)(CC(CP(=O)(OCC)OCC)c1ccccn1)OCC [Compound 40] the “Specifically bound [^3 H]-Nitrendipine % of control value” [1] was 100 % of control value, the “Bound ^3 H at 1.0 μM / Bound ^3 H at 0.1 μM” value [1] was 0.978 and the activity at 1 µM [2] was 61.2 ± 4.6%. The “activity … (in words)” value ([2]; final concentration 1.0 μM) was “potent pharmacological activity”.

CC(C)OP(=O)(CC(CCCc1ccccc1)CP(=O)(OC(C)C)OC(C)C)OC(C)C [Compound 56] was tested, and the “modulation” value [1] was “activators”, the “Specifically bound [^3 H]-Nitrendipine % of control value” [1] was 115 % of control value and the “Bound ^3 H at 1.0 μM / Bound ^3 H at 0.1 μM” value [1] was 1.115. For the same compound, the activity at 1 µM [2] was 100%.

For CCCCCC(CP(=O)(OCCCC)OCCCC)CP(=O)(OCCCC)OCCCC [Compound 66], the “modulation” value [1] was “strong inhibitors”, the “Specifically bound [^3 H]-Nitrendipine % of control value” [1] was 26 % of control value and the “Bound ^3 H at 1.0 μM / Bound ^3 H at 0.1 μM” value [1] was 0.387. The activity at 1 µM [2] was 88.5 ± 0.5%.

With CCCCOP(=O)(CC(CCCC1CCCCC1)CP(=O)(OCCCC)OCCCC)OCCCC [Compound 68, Tetrabutyl 2-(3-Cyclohexylpropyl)-1,3-propylidenediphosphonate] the “modulation” value [1] was “strong inhibitors”, the “Specifically bound [^3 H]-Nitrendipine % of control value” [1] was 0 % of control value and the “Bound ^3 H at 1.0 μM / Bound ^3 H at 0.1 μM” value [1] was 0.000. The activity at 1 µM [2] was 100 ± 4%.

With CCCCOP(=O)(CC(Cc1ccc(-c2ccccc2)cc1)CP(=O)(OCCCC)OCCCC)OCCCC [Compound 84] the “Specifically bound [^3 H]-Nitrendipine % of control value” [1] was 80 % of control value, the “Bound ^3 H at 1.0 μM / Bound ^3 H at 0.1 μM” value [1] was 0.886 and the activity at 1 µM [2] was 98.5 ± 2.5%.

In the case of CCCCOP(=O)(CC(CP(=O)(OCCCC)OCCCC)C(c1ccccc1)c1ccccc1)OCCCC [Compound 85], the “Specifically bound [^3 H]-Nitrendipine % of control value” [1] is reported as 112 % of control value, the “Bound ^3 H at 1.0 μM / Bound ^3 H at 0.1 μM” value [1] is reported as 1.082 and the activity at 1 µM [2] is reported as 96.2 ± 0.8%.

For CCCCOP(=O)(CC(CP(=O)(OCCCC)OCCCC)c1ccccn1)OCCCC [Compound 86], the “Specifically bound [^3 H]-Nitrendipine % of control value” [1] was 98 % of control value, the “Bound ^3 H at 1.0 μM / Bound ^3 H at 0.1 μM” value [1] was 1.052 and the activity at 1 µM [2] was 89 ± 2%.

With CCCCOP(=O)(CC(Cc1ccncc1)CP(=O)(OCCCC)OCCCC)OCCCC [Compound 87] the “Specifically bound [^3 H]-Nitrendipine % of control value” [1] was 93 % of control value, the “Bound ^3 H at 1.0 μM / Bound ^3 H at 0.1 μM” value [1] was 0.967 and the activity at 1 µM [2] was 71.9 ± 1.9%. The “activity … (in words)” value ([2]; final concentration 1.0 μM) was “potent pharmacological activity”.

For CCCCOP(=O)(CC(CCCc1cccnc1)CP(=O)(OCCCC)OCCCC)OCCCC [Compound 88], the “modulation” value [1] was “strong inhibitors”, the “Specifically bound [^3 H]-Nitrendipine % of control value” [1] was 69 % of control value and the “Bound ^3 H at 1.0 μM / Bound ^3 H at 0.1 μM” value [1] was 0.760. The activity at 1 µM [2] was 56.3 ± 5.9% and the “activity … (in words)” value ([2]; final concentration 1.0 μM) was “potent pharmacological activity”.

With CC(C)COP(=O)(CC(CCCc1ccccc1)CP(=O)(OCC(C)C)OCC(C)C)OCC(C)C [Compound 111] the “Specifically bound [^3 H]-Nitrendipine % of control value” [1] was 57 % of control value, the “Bound ^3 H at 1.0 μM / Bound ^3 H at 0.1 μM” value [1] was 0.809 and the activity at 1 µM [2, 3] was 100 ± 1.5%.

In the case of CCCCCOP(=O)(CC(CCCc1ccccc1)CP(=O)(OCCCCC)OCCCCC)OCCCCC [Compound 112, Tetrapentyl 2-(3-phenylpropyl)-1,3-propylidenediphosphonate], the “Specifically bound [^3 H]-Nitrendipine % of control value” [1] is reported as 0 % of control value, the “Bound ^3 H at 1.0 μM / Bound ^3 H at 0.1 μM” value [1] is reported as 0.645 and the activity at 1 µM [2, 3] is reported as 84 ± 3%.

CCCCCCOP(=O)(CC(CCCc1ccccc1)CP(=O)(OCCCCCC)OCCCCCC)OCCCCCC [Compound 113, Tetrahexyl 2-(3-phenylpropyl)-1,3-propylidenediphosphonate] was tested, and the “modulation” value [1] was “strong inhibitors”, the “Specifically bound [^3 H]-Nitrendipine % of control value” [1] was 20 % of control value and the “Bound ^3 H at 1.0 μM / Bound ^3 H at 0.1 μM” value [1] was 0.621. It also gave an activity at 1 µM [2, 3] of 90 ± 1.5%.

With CCN(CC)CCCCCCCCOC(=O)c1cc(OC)c(OC)c(OC)c1 [TMB-8, reference compound] the “% [^3 H]-Nitrendipine bound” value ([1]; reference standards at 1 μM) was 95%.
